Source: patent publication US20260256712A1, “COMPOUNDS FOR INHIBITING GRAM-POSITIVE BACTERIA” (priority 2022, published 2026)
Entries after “also recorded” stand apart in the source; their conditions may differ.

What was measured:
[1] = Cytotoxicity assay (CellTiter 96 AQueous One Solution); assay type: cell-based; details: African green monkey, Vero cells, read-out: Cytotoxicity CC 50
Protocol: Cytotoxicity assay. Compounds were tested for cytotoxicity against mammalian Vero cells using the CellTiter 96 AQueous One Solution Assay kit (Promega). Vero cells were seeded in 96-well plates at a density of 2×10^4 cells per well, and the plates were incubated for 4 h at 37° C. to allow attachments of the Vero cells. Chemical compounds being tested were then added to the wells starting from a final concentration of 50 μg/mL and making 12 1:2 dilutions. Cells were incubated for 72 h at 37° C., after which 20 μL of freshly prepared MTS:PMS reagents was added to each well. The plates were incubated for 2 h and then read at an absorbance of 490 nm.

[2] = tested on: Staphylococcus aureus strains including MRSA; assay: Drug susceptibility assay (MIC), Staphylococcus aureus; assay type: cell-based; details: including the MRSA strain
Protocol: Drug susceptibility assays. Experiments to determine the minimum inhibitory concentration (MIC) of RR-THC for bacterial growth were performed in 96-well microtiter plates. A DMSO stock solution of each compound was added to the first column and serially diluted across the columns of the plate. The last column of the plate contained no drug and served as a no-drug control. Overnight cultures of the bacterium being tested (MRSA ATCC 43300, […], or the aforementioned VRSA/VISA strains) were diluted 1000-fold, and 100 μL of the diluted culture (appr. 2×10^3 cells) was used as an inoculum in each well. MICs were determined by visual inspection looking for a pellet after 18 h incubation at 37° C. and centrifugation.

E. coli strains = assay: Bacterial growth assay, E. coli; assay type: cell-based, Escherichia coli
Protocol: (§1) The culture was diluted again 1/500 in 1 ml of fresh media with presence of increasing concentrations of tested compound or 1% DMSO as a control.

B. subtilis IS-75 = assay: Bacterial growth / viable count assay, B. subtilis; assay type: cell-based, Bacillus subtilis
Protocol: as §1

Pseudomonas aeruginosa = assay: Bacterial growth assay, Pseudomonas aeruginosa; assay type: cell-based
Protocol: as §1

[3] = Intraperitoneal administration in mice; assay type: in vivo; details: 10 mg/ml
Gram-negative bacteria = assay: Drug susceptibility assay (MIC), Gram-negative bacteria; assay type: cell-based
[4] = tested on: ternary complex between Cy5-EF-Tu:GTP and Cy3-Phe-tRNAPhe; assay: EF-Tu:tRNA FRET assay (qHTS and secondary FRET assay); assay type: biochemical, E. coli; details: online and offline LOPAC testing
Description: Upon formation of functional ternary complex between Cy5-EF-Tu:GTP and Cy3-Phe-tRNAPhe, fluorescence energy transfer (FRET) occurs between Cy3 and Cy5 fluorophores located within Förster radius (~17 Å) when Cy3 is excited at 532 nm, and as a result the complex emits light at 665 nm. Presence of inhibitors of the ternary complex prevents complex from forming, thereby reducing fluorescence intensity at 665 nm.
Inhibitors of EF-Tu:tRNA translation were identified using this in vitro FRET system. Quantitative high throughput screening (qHTS) was performed on the LOPAC library containing 1,280 chemicals to identify potential leads for antibiotic development. […]
Equipment: EnVision 2104 Multilabel Plate Reader (PerkinElmer) with excitation optical filter 2100-5050 Bodipy TMR FR 531 nm and emission optical filter 2100-5770 Cy5 685 nm. […]
All solutions were prepared fresh in assay buffer consisting of 70 mM HEPES-KOH (pH7.6), 52 mM ammonium acetate, 8 mM magnesium chloride, 30 mM potassium chloride, and 2.6% glycerol. […] FRET was then detected using 1) a ViewLux high-throughput microplate imager (PerkinElmer) equipped with Ex: 525/20 and Em: 671/8 filters; or 2) an Envision Multimode plate reader (PerkinElmer) equipped with Ex: 530/25 and Em: 665 filters. Assay performance, as calculated by Z′ factor as described by Zhang et al (J Biomol Screen, 1999), was favorable for the Envision plate reader. […]

[5] = tested on: Cy3/Cy5-labelled oligonucleotides; assay: Counterscreen assay excluding quenching (Cy3/Cy5 oligonucleotide FRET); details: 50 nM of each oligonucleotide
Protocol: Oligonucleotides were purchased from Integrated DNA Technologies:
In the assay, a 50 nM final concentration of each oligonucleotide was used.
Incubation buffer: 70 mM HEPES-KOH (pH 7.6), 52 mM ammonium acetate, 8 mM magnesium chloride, 30 mM potassium chloride and 2.6% glycerol. A 96-well black, clear bottom microplate was used and read the plate was read using EnVision multilabel plate reader (PerkinElmer) having the same optical filters and parameters as described in Example 2.

B. subtilis 1S-75 = assay: Zone inhibition assay (ZIA), B. subtilis; assay type: cell-based, Bacillus subtilis
[6] = tested on: USA300 methicillin-resistant Staphylococcus aureus (MRSA); assay type: in vivo, C57Bl/6J mice; details: for bacterial counts (punch biopsies) / dermonecrosis: topical ointment daily, 0.2 mg drug; for dermonecrosis: first experiment
E. coli DH5α = assay: Zone inhibition assay (ZIA), E. coli
mycobacteria = assay: Drug susceptibility assay (MIC), mycobacteria; assay type: cell-based

| SMILES | CC50 at 72 h [1] [µM] | sensitivity in MIC assay, three Staphylococcus aureus strains [2] | inhibition of bacterial growth, E. coli strains (E. coli strains) | colony formation of B. subtilis on agar plate (B. subtilis IS-75; 10 μM added to the medium in an agar plate) | inhibition at 5 µM (B. subtilis IS-75; Bacillus subtilis, IS75, 5 μM, cells grown in test tubes) [%] | inhibition of bacterial growth, Pseudomonas aeruginosa (Pseudomonas aeruginosa) | toxicity upon intraperitoneal administration [3] | sensitivity in MIC assay, Gram-negative bacteria (Gram-negative bacteria) | effect on Cy5-EF-Tu acceptor fluorescence emission in the FRET assay [4] | change of FRET in quenching counterscreen [5] | zone inhibition result in words, gram-positive bacteria (B. subtilis) (B. subtilis 1S-75) | dermonecrosis, repetition of the experiment ([6]; compared to controls but not compared to the mupirocin treated group) | bacterial counts (punch biopsies) [6] | dermonecrosis [6] | zone inhibition result in words, E. coli (E. coli DH5α) | sensitivity in MIC assay, mycobacteria (mycobacteria) |
| --- | --- | --- | --- | --- | --- | --- | --- | --- | --- | --- | --- | --- | --- | --- | --- | --- |
| CC[C@@H]1Cc2cc(O)ccc2C2=C1c1ccc(O)cc1C[C@H]2CC [RR-THC, (R,R)-tetrahydrochrysene] | > 50 | highly sensitive | No inhibition | colonies did not form | ~97 | No inhibition | a level of toxicity observed | not sensitive | significantly diminished; also recorded: effectively decreased Cy5-EF-Tu acceptor fluorescence emission; also recorded: highly active in both methods | did not significantly change FRET | clear zone indicative of inhibition of cell growth | statistically significant decrease in dermonecrosis | no difference apparent | inhibiting dermonecrosis; also recorded: trend to reduced dermonecrosis | did not inhibit | not sensitive |
| C/C(=C\C(=O)OCCCCCCCCC(=O)O)C[C@@H]1OC[C@H](C[C@@H]2O[C@H]2[C@@H](C)[C@H](C)O)[C@@H](O)[C@H]1O [mupirocin, reference compound] | – | – | – | – | – | – | – | – | – | – | – | – | trend to reduction | no decrease | – | – |
